Measured values reported in paper PMC7949139, “The molecular basis of OH-PCB estrogen receptor activation” (The Journal of Biological Chemistry, 2021).
Read-outs that look alike come from different tables or passages of the source. Marks after values point to notes of the source that are not given here.

Legend:
SULT1E1 [1] = biological target: T1, SULT1E1 (Homo sapiens, UniProt P49888); design: method as in PMID 9556564; settings: E2 as substrate; cited from earlier work
T1 construct: E. coli codon-optimized SULT1E1 coding region inserted into the PreScission Protease cleavage site; His/GST/MBP triple tag (N, cleaved yes); made in house; host or cells: E. coli BL21(DE3)
T1 sequence (P49888 1-294): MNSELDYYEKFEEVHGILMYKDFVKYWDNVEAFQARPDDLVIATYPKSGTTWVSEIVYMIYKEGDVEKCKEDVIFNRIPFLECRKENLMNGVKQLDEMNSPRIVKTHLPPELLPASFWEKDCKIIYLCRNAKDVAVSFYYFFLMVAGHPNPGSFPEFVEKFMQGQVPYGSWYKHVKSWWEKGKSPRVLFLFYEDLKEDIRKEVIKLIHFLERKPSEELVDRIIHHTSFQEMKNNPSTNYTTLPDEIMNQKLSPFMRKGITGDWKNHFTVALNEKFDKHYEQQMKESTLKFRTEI

[2] = system: estrogen receptor (ER) activation in (-) SULT1E1 control Ishikawa cells; assay: Estrogen receptor activation (alkaline phosphatase activity), control strain; format: cell-based; settings: Homo sapiens, read-out: Ligand EC50, ER activation
Procedure: (§1) pcDNA 3.1 constructs harboring either the SULT1E1 WT or double mutant (F75A/F80A) coding regions were generated using Gibson Assembly ([74]). The vectors were linearized using BGIII. Ishikawa cells were grown at 37 °C ± 2 deg. C in growth medium (MEM media containing 10% v/v FBS). At confluence, the cells were washed (3×) with PBS media before coating with an Opti-MEM solution containing a linearized construct (50 ng μg^−1) and lipofectamine (2.5 units ml^−1). After 24 h at 37 °C ± 2 deg. C, cells were washed (3×) with PBS before adding growth medium containing neomycin (400 μg ml^−1) to select transfectants. Selective growth medium was replenished every 48 h until single colonies could be isolated (∼3–6 weeks). Single colonies were transferred using trypsin digest (0.05%) to 12-well plates and grown at 37 °C ± 2 deg. C to confluence for further experimentation and storage.
(§2) Transfected Ishikawa cells were grown at 37 °C ± 2 deg. C to 60 to 70% confluency in MEM containing 10% v/v FBS. Cells were then transferred to 96-well tissue culture plates and grown at 37 °C ± 2 deg. C to 80% confluency in MEM containing 10% v/v charcoal filtered FBS. The plate was then washed with PBS and grown at 37 °C ± 2 deg. C for 24 h in MEM without FBS. Estradiol (0–3.0 μM) and OH-PCB (0–1.0 μM) solubilized in neat DMSO were added and cells were incubated at 37 °C ± 2 deg. C for 5 days. The final concentrations of DMSO were ≤0.10%. Cells were then washed twice with PBS before adding pNpp (5.0 mM) in PBS ([75]). Following incubation with pNpp for 3 h at 25 °C ± 2 deg. C, wells were read at 405 nm using a Synergy HT BioTek Plate Reader.

[3] = system: estrogen receptor (ER) activation in Ishikawa cells expressing F75A/F80A SULT1E1; assay: cells; format: cell-based, human; settings: for EC50: Homo sapiens, Ishikawa, read-out: Ligand EC50, ER activation
Procedure: as §1, §2

[4] = system: estrogen receptor (ER) activation in Ishikawa cells expressing WT SULT1E1; assay: cells; format: cell-based, human; settings: for EC50: Homo sapiens, Ishikawa, read-out: Ligand EC50, ER activation
Procedure: as §1, §2

SULT1E1 [5] = biological target: T1, SULT1E1; assay: Equilibrium binding studies (SULT1E1 intrinsic fluorescence); settings: for Kd: pH 7.4, 25 °C, spread = one SD
Procedure: The binding of inhibitors to WT and mutant SULT1E1 was monitored via ligand-induced changes in the intrinsic fluorescence of the enzyme (λex= 290 nm, λem= 340 nm) ([4]). […] C. Titrations were performed in triplicate and the averaged data were least-squares fit to the following quadratic, single-site binding model: Io − ΔI∙(([L]+Etot + Kd) − [([L]+Etot + Kd)^2 − (4∙[L]∙Etot)]^1/2)/2∙Etot, where Io and ΔI represent fluorescent intensity at zero and infinite [L].

SULT1E1 [6] = biological target: T1, SULT1E1; design: method as in PMID 10803601; settings: read-out: Ki (SULT1E1 inhibition); cited from earlier work
WT SULT1E1 = biological target: T2, WT SULT1E1 (Homo sapiens, UniProt P49888); assay: Initial-rate studies (1-HP sulfonation; OH-PCB inhibition), WT enzyme; format: biochemical; settings: compared with ER-activation EC50 values; read-out: Ki values (SULT1E1)
T2 construct: E. coli codon-optimized SULT1E1 coding region inserted into the PreScission Protease cleavage site; His/GST/MBP triple tag (N, cleaved yes); made in house; host or cells: E. coli BL21(DE3)
T2 sequence (P49888 1-294): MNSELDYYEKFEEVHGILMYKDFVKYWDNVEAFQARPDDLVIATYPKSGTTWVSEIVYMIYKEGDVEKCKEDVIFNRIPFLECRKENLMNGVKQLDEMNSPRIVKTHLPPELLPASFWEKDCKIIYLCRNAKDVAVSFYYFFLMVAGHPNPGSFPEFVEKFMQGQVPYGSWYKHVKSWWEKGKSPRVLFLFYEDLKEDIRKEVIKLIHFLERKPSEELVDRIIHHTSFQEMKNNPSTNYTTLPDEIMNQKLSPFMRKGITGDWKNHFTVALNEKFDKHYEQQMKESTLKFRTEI
Procedure: (§3) C. Reaction progress was monitored via the fluorescence change associated with 1-HP sulfonation (λex = 325 nm, λem = 370 nm ([51], [52])). Initial rates were measured during conversion to product of ≤5% of the concentration-limiting substrate consumed at the reaction endpoint. Velocities were determined in triplicate. Km and kcat were obtained by (1/v^4)-weighted least-squares fitting of the averaged data in double-reciprocal space (i.e., 1/v versus 1/[S]) ([66], [67]).
(§4) Inhibition studies were performed as described above except: 1-HP was fixed (2.0 μM, 100 × Km), OH-PCBs were added (0.20–20 × Ki), and SULT1E1 was 0.20 nM (active sites). Ki was determined by least-squares fitting to a noncompetitive inhibition model ([66], [67]).

[7] = substrate: C[C@]12CC[C@@H]3c4ccc(O)cc4CC[C@H]3[C@@H]1CC[C@@H]2O; assay: E2 sulfonation initial-rate assay ([3H]-E2), WT; format: biochemical, human; settings: other: WT, [3H]-E2, PAPS 0.30 mM, pH 7.5, 25 °C, parentheses = one SD
Procedure: (§5) SULT1E1-catalyzed conversion of [^3H]-E2 to [^3H]-E2-sulfate was quantitated as previously described ([68]). […] C. […] The reaction mixture was diluted tenfold with an E2 (10 μM), KPO4 (50 mM), pH 7.5 solution, and brought to pH 7.0 with HCl (6.0 N). The reaction was then mixed (1:1 v/v) with neat chloroform and centrifuged (15,000g, 5.0 min). The aqueous layer was removed, chloroform was extracted twice more, and radioactivity in the aqueous layer was then determined by liquid scintillation counting. Reactions were performed in triplicate and Km and kcat were obtained by (1/v^4)-weighted least-squares fitting of the data in double-reciprocal space (i.e., 1/v versus 1/[S]) ([67]).

[8] = substrate: Oc1ccc2ccc3cccc4ccc1c2c34; assay: Initial-rate studies (1-HP sulfonation; OH-PCB inhibition), WT enzyme; format: biochemical, human; settings: other: WT, PAPS 0.30 mM, pH 7.5, 25 °C, parentheses = one SD
Procedure: as §3, §4

[9] = substrate: Oc1ccc2ccc3cccc4ccc1c2c34; assay: Initial-rate studies (1-HP sulfonation; OH-PCB1 inhibition), F75A mutant; format: biochemical, human; settings: other: F75A; parentheses = one SD; pH 7.5; 25.0 °C
Procedure: as §3, §4

[10] = substrate: Oc1ccc2ccc3cccc4ccc1c2c34; assay: Initial-rate studies (1-HP sulfonation; OH-PCB1 inhibition), F80A mutant; format: biochemical, human; settings: other: F80A; parentheses = one SD; pH 7.5; 25.0 °C
Procedure: as §3, §4

[11] = substrate: Oc1ccc2ccc3cccc4ccc1c2c34; assay: Initial-rate studies (1-HP sulfonation; OH-PCB1 inhibition), Y239A mutant; format: biochemical, human; settings: other: Y239A; parentheses = one SD; pH 7.5; 25.0 °C
Procedure: as §3, §4

[12] = substrate: Oc1ccc2ccc3cccc4ccc1c2c34; assay: Initial-rate studies (1-HP sulfonation; OH-PCB1 inhibition), double mutant; format: biochemical, human; settings: other: F80A/F75A; parentheses = one SD; pH 7.5; 25.0 °C
Procedure: as §3, §4

[13] = substrate: C[C@]12CC[C@@H]3c4ccc(O)cc4CC[C@H]3[C@@H]1CC[C@@H]2O; assay: E2 sulfonation initial-rate assay ([3H]-E2), double mutant; format: biochemical, human; settings: other: F80A/F75A; parentheses = one SD; 25.0 °C
Procedure: as §5

C[C@]12CC[C@@H]3c4ccc(O)cc4CC[C@H]3[C@@H]1CC[C@@H]2O [E2, 17-Beta-estradiol]
Kd (SULT1E1 [5]; OH-PCB1 10 μM, PAP 300 μM, read-out: Kd, ligand binding to enzyme species E⋅PAP⋅OH-PCB1): 0.98 nM
Kd (SULT1E1 [5]; OH-PCB2 7.0 μM (higher partner concentration), PAP 0.30 mM, read-out: Kd, ligand binding to enzyme species E⋅PAP⋅OH-PCB2): 1.1 nM

Oc1c(Cl)cc(-c2ccc(Cl)c(Cl)c2)cc1Cl [OH-PCB2, 4-OH-3,3',4',5-tetrachlorobiphenol]
Ki (SULT1E1 [6]): ~0.4 nM
EC50 [2]: > 1000 nM
Ki (WT SULT1E1): 0.5 nM
EC50 [3]: > 1000 nM
EC50 [4]: 0.87 nM
Kd (SULT1E1 [5]; E2 4.0 μM (higher partner concentration), PAP 300 μM, read-out: Kd, ligand binding to enzyme species E⋅PAP⋅E2): 0.4 nM
Kd (SULT1E1 [5]; free enzyme E, read-out: Kd, ligand binding to enzyme species E): 7.2 nM

B1: WT SULT1E1 (Homo sapiens) (protein)
chain: MNSELDYYEKFEEVHGILMYKDFVKYWDNVEAFQARPDDLVIATYPKSGTTWVSEIVYMIYKEGDVEKCKEDVIFNRIPFLECRKENLMNGVKQLDEMNSPRIVKTHLPPELLPASFWEKDCKIIYLCRNAKDVAVSFYYFFLMVAGHPNPGSFPEFVEKFMQGQVPYGSWYKHVKSWWEKGKSPRVLFLFYEDLKEDIRKEVIKLIHFLERKPSEELVDRIIHHTSFQEMKNNPSTNYTTLPDEIMNQKLSPFMRKGITGDWKNHFTVALNEKFDKHYEQQMKESTLKFRTEI
notes: E. coli codon-optimized SULT1E1 coding region inserted into the PreScission Protease cleavage site; His/GST/MBP triple tag (N, cleaved yes); made in house; host or cells: E. coli BL21(DE3)
Km [7]: 3.8 (0.2) ^a nM
kcat [7]: 2.5 s⁻¹
Km [8]: 25 (2.2) ^c nM
kcat [8]: 0.633 s⁻¹

B2: SULT1E1 F75A (Homo sapiens; F75A) (protein)
chain: MNSELDYYEKFEEVHGILMYKDFVKYWDNVEAFQARPDDLVIATYPKSGTTWVSEIVYMIYKEGDVEKCKEDVIANRIPFLECRKENLMNGVKQLDEMNSPRIVKTHLPPELLPASFWEKDCKIIYLCRNAKDVAVSFYYFFLMVAGHPNPGSFPEFVEKFMQGQVPYGSWYKHVKSWWEKGKSPRVLFLFYEDLKEDIRKEVIKLIHFLERKPSEELVDRIIHHTSFQEMKNNPSTNYTTLPDEIMNQKLSPFMRKGITGDWKNHFTVALNEKFDKHYEQQMKESTLKFRTEI
notes: as for B1
Km [9]: 27 (1.7) nM
kcat [9]: 0.6 s⁻¹

B3: SULT1E1 F80A (Homo sapiens; F80A) (protein)
chain: MNSELDYYEKFEEVHGILMYKDFVKYWDNVEAFQARPDDLVIATYPKSGTTWVSEIVYMIYKEGDVEKCKEDVIFNRIPALECRKENLMNGVKQLDEMNSPRIVKTHLPPELLPASFWEKDCKIIYLCRNAKDVAVSFYYFFLMVAGHPNPGSFPEFVEKFMQGQVPYGSWYKHVKSWWEKGKSPRVLFLFYEDLKEDIRKEVIKLIHFLERKPSEELVDRIIHHTSFQEMKNNPSTNYTTLPDEIMNQKLSPFMRKGITGDWKNHFTVALNEKFDKHYEQQMKESTLKFRTEI
notes: as for B1
Km [10]: 23 (1.8) nM
kcat [10]: 0.583 s⁻¹

B4: SULT1E1 Y239A (Homo sapiens; Y239A) (protein)
chain: MNSELDYYEKFEEVHGILMYKDFVKYWDNVEAFQARPDDLVIATYPKSGTTWVSEIVYMIYKEGDVEKCKEDVIFNRIPFLECRKENLMNGVKQLDEMNSPRIVKTHLPPELLPASFWEKDCKIIYLCRNAKDVAVSFYYFFLMVAGHPNPGSFPEFVEKFMQGQVPYGSWYKHVKSWWEKGKSPRVLFLFYEDLKEDIRKEVIKLIHFLERKPSEELVDRIIHHTSFQEMKNNPSTNATTLPDEIMNQKLSPFMRKGITGDWKNHFTVALNEKFDKHYEQQMKESTLKFRTEI
notes: as for B1
Km [11]: 25 (2.3) nM
kcat [11]: 0.633 s⁻¹

B5: SULT1E1 F80A/F75A (Homo sapiens; F75A/F80A) (protein)
chain: MNSELDYYEKFEEVHGILMYKDFVKYWDNVEAFQARPDDLVIATYPKSGTTWVSEIVYMIYKEGDVEKCKEDVIANRIPALECRKENLMNGVKQLDEMNSPRIVKTHLPPELLPASFWEKDCKIIYLCRNAKDVAVSFYYFFLMVAGHPNPGSFPEFVEKFMQGQVPYGSWYKHVKSWWEKGKSPRVLFLFYEDLKEDIRKEVIKLIHFLERKPSEELVDRIIHHTSFQEMKNNPSTNYTTLPDEIMNQKLSPFMRKGITGDWKNHFTVALNEKFDKHYEQQMKESTLKFRTEI
notes: as for B1
Km [12]: 28 (2.2) nM
kcat [12]: 0.583 s⁻¹
Km [13]: 4.0 (0.2) nM
kcat [13]: 2.5 s⁻¹
